Values of other authors in US6933291B2, “Cholesterol lowering supplement” (N.V. Nutricia, priority 2000, dated 2005).
Blank lines part the entries; values can stand above or below the compound they belong to.

Columns and labels:
[1] = case reports from the literature
[2] = rats
[3] = test system: HMG-CoA reductase; conditions: rats given cholesterol

SMILES: CC[C@H](C)C(=O)O[C@H]1C[C@@H](C)C=C2C=C[C@H](C)[C@H](CC[C@@H]3C[C@@H](O)CC(=O)O3)[C@H]21 [Lovastatin, lovastatin]
adverse effect reported in patients [1]: liver failure

SMILES: CC[C@H](CC[C@@H](C)[C@H]1CC[C@H]2[C@@H]3CC=C4C[C@@H](O)CC[C@]4(C)[C@H]3CC[C@]12C)C(C)C [beta-sitosterol]
cholesterol absorption (effect in words) [2]: inhibited
cholesterol synthesis ([2]; increased from 20.0 mg/day): 28.8 mg/day

HMG-CoA reductase activity inhibited [3]: 80%
SMILES: CC(C)CCC[C@@H](C)[C@H]1CC[C@H]2[C@@H]3CC=C4C[C@@H](O)CC[C@]4(C)[C@H]3CC[C@]12C [cholesterol]
conversion of cholesterol to bile acids ([2]; enhanced from 13.7 mg/day on feeding cholesterol): 27.3 mg/day
cholesterol absorption ([2]; increased from 1.2 mg/day on feeding cholesterol): 70 mg/day
